Measured values: patent US4673690A, “Acylated enamides and pharmaceutical compositions containing them” (priority 1982, dated 1987)

Experiments:
aldrin mono-oxygenase = test: Toxicity of doxorubicin in vivo: aldrin mono-oxygenase activity in the liver; design: species or system rats; conditions: rat
Protocol: (§1) On the other hand the drop in benzo(a)pyrene hydroxylase activity is no more than 20% and the decrease in aldrin mono-oxygenase activity is reduced to 40%.
(§2) A single dose (10 mg/kg) of a composition containing equal amounts by weight of doxorubicin and of para-(methoxyphenylacetyl)-dehydroalanine was injected into rats. A 60% increase in the minimum content of cytochrome P450, a 20% increase in the benzo(a)pyrene hydroxylase activity and a 5% decrease in the aldrin mono-oxygenase activity were observed.

cytochrome P450 = test: Toxicity of doxorubicin in vivo: content of cytochrome P450 in the liver; design: species or system rats
Protocol: as §1, §2

[1] = tested on: benzo(a)pyrene hydroxylase; test: Toxicity of doxorubicin in vivo: benzo(a)pyrene hydroxylase activity in the liver; design: species or system rats
Protocol: as §1, §2

[2] = tested on: Taper Liver Tumor cancer cells; test: Taper Liver Tumor in mice, variation of the amount of S 86 (Example 3); type: in vivo, NMRI strain; conditions: cyclophosphamide 80 mg/kg alone, i.p.
Protocol: One million "Taper Liver Tumor" cancer cells are injected intraperitoneally into groups of twelve adult male mice, NMRI strain, the mice having a body weight of about 30 grams. 48 hours after this injection various pharmaceutical compositions according to the invention are administered, again intraperitoneally, to the mice, the amount of para-(methoxyphenylacetyl)-dehydroalanine present in the composition administered being varied, and compositions only containing cyclophosphamide also beino administered.
(§3) Thereafter, three parameters are measured:
(a) the variations of the mean weight of the mice on the fifth day after inoculation of the cancer tumour (V.M.W.)
(§4) (b) the median survival of 12 mice treated with a pharmaceutical composition according to the invention or treated with cyclophosphamide alone (M.S.)
(c) the prolongation of survival of the mice treated with a composition according to the invention relative to comparison mice treated with cyclophosphamide alone (P.S.).

[3] = tested on: Taper Liver Tumor cancer cells; test: Survival of mice inoculated with Taper Liver Tumor cells (Example 2); type: in vivo; conditions: cyclophosphamide alone, intraperitoneal, 48 hours after cancer cells
Protocol: A pharmaceutical composition is prepared by mixing 4 g of para-(methoxyphenylacetyl)-dehydroalanine obtained according to Example 1 and 3.2 g of cyclophosphamide.
One million "Taper Liver Tumor" cancer cells are injected intraperitoneally into a group of 10 mice each weighing about 30 g. 48 hours after this injection, the pharmaceutical composition described above is administered again intraperitoneally, in an amount of 180 mg per kg of mouse.
By way of comparison, a group of 10 similar mice to which likewise one million "Taper Liver Tumor" cancer cells have been administered is subjected solely to administration of cyclophosphamide, by intraperitoneal injection, 48 hours after administration of the cancer cells, and a group of 10 other similar mice, to which, again, one million "Taper Liver Tumor" cancer cells have been administered is not subjected to any further treatment whatsoever.

[4] = tested on: Taper Liver Tumor cancer cells; test: Taper Liver Tumor in mice, variation of the amount of cyclophosphamide (Example 4); type: in vivo, NMRI strain; conditions: i.p.
Protocol: One million "Taper Liver Tumor" cancer cells are injected intraperitoneally into groups of twelve adult male mice, NMRI strain, the mice having a body weight of about 30 grams. 48 hours after this injection various pharmaceutical compositions according to the invention are administered, again intraperitoneally, to the mice, the amount of cyclophosphamide present in the composition administered being varied, and compositions only containing cyclophosphamide also being administered.
as §3
(a) the variation of the mean weight of the mice on the fifth day after inoculation of the cancer tumour (V.M.W.)
as §4
(c) the prolongation of survival of the mice treated with a composition according to the invention relative to comparison mice treated with the same dose of cyclophosphamide (P.S).

L311 leukaemia cells = test: Survival of rats inoculated with L311 leukaemia cells (Example 6); type: in vivo, LOU/2 strain; conditions: doxorubicin alone, intraperitoneal
Protocol: A pharmaceutical composition is prepared by mixing 4 g of para-(methoxyphenylacetyl)-dehydroalanine obtained according to Example 1 and 0.2 g of doxorubicin.
One million L311 leukaemia cells are injected intraperitoneally into a group of six rats, LOU/2 strain, the mean body weight of the rats being 160 g. L311 leukaemia is a tumour transplantable in rats of strain LOU/2, the tumour being described in the article by C. Deckers, F. Mare, L. Deckers-Passeu and A. Trouet, Adriamycin Review, Part I, 1973, pages 79 to 86.
48 hours after this injection the pharmaceutical composition described above is administered to the rats, again intraperitoneally, in an amount of 105 mg per kg of rat.
By way of comparison, a group of twelve similar rats to which one million L311 leukaemia cells have also been administered is subjected solely to intraperitoneal administration of doxorubicin 48 hours after the administration of the L311 leukaemia cells, and a group of twelve similar rats to which one million L311 leukaemia cells have also been administered is given no subsequent treatment whatsoever.

Solubility = type: physicochemical
[5] = Lethal dose (LD50) in the mouse; conditions: in vivo
Description: The results obtained are listed in the table below, the para-(methoxyphenylacetyl)-dehydroalanine being referred to by the code S 86.

[6] = cyclophosphamide 80 mg/kg alone
[7] = cyclophosphamide 180 mg/kg alone
[8] = cyclophosphamide 360 mg/kg alone
[9] = cyclophosphamide 450 mg/kg alone
[10] = cyclophosphamide 540 mg/kg alone
[11] = single dose of doxorubicin 10 mg/kg, subcutaneous, rat liver

## NCCS [cysteamine]
Aldrin mono-oxygenase
  decrease in aldrin mono-oxygenase activity: 40%
Cytochrome P450; rat, in vivo
  protection against the effect of doxorubicin on the level of cytochrome P450: does not protect
[1]; rat, in vivo
  drop in benzo(a)pyrene hydroxylase activity: no more than 20%

## O=P1(N(CCCl)CCCl)NCCCO1 (stereo not shown) [Cyclophosphamide, cyclophosphamide]
[2]
  median survival (M.S.): 24 days
  variation of the mean weight of the mice on the fifth day (V.M.W.): -1
[3]
  all die between (day of death): twenty-second day and the twenty-fifth day
[4]; [6]
  median survival (M.S.): 21 days
  variation of the mean weight of the mice on the fifth day (V.M.W.): -2.2
[4]; [7]
  median survival (M.S.): 23 days
  variation of the mean weight of the mice on the fifth day (V.M.W.): -4.4
[4]; [8]
  median survival (M.S.): 31 days
  variation of the mean weight of the mice on the fifth day (V.M.W.): -6.6
[4]; [9]
  median survival (M.S.): 20 days
  variation of the mean weight of the mice on the fifth day (V.M.W.): -14
[4]; [10]
  median survival (M.S.): 12 days
  variation of the mean weight of the mice on the fifth day (V.M.W.): -18.6

## COc1cccc2c1C(=O)c1c(O)c3c(c(O)c1C2=O)C[C@@](O)(C(=O)CO)C[C@@H]3O[C@H]1C[C@H](N)[C@H](O)[C@H](C)O1 [doxorubicin]
Cytochrome P450; [11]
  reduction in the minimum content of cytochrome P450: 20%
L311 leukaemia cells
  first death after administration of the leukaemia cells: sixteen
L311 leukaemia cells; 48 hours after leukaemia cells
  mean length of survival after administration of the leukaemia cells: 27.6 days
[1]; [11]
  benzo(a)pyrene hydroxylase activity (in words): a drop in benzo(a)pyrene hydroxylase activity

## C=C(NC(=O)Cc1ccc(OC)cc1)C(=O)O [S 86, para-(methoxyphenylacetyl)-dehydroalanine]
Solubility
  solubility of the product: low solubility
[5]
  LD50: > 400 mg/kg
